Assay results as given in patent publication US5952294A, “Peptidyl prodrugs and methods of making and using the same” (University of Pittsburgh of the Commonwealth System of …, priority 1996, dated 1999).
≈ marks a conversion by molar mass, not a printed value.

Experiments:
[1] = Release of ara-C from prodrugs in bovine plasma by HPLC; type: in vitro ADME; conditions: pH 7.4, 22° C.
Protocol: (§1) HPLC studies of the cyclization process in plasma were performed on a 4 mg/ml solution of prodrug in plasma. At appropriate time intervals, 25 microliter aliquots were removed and 0.20 ml of CH3 CN was added to precipitate the protein. After centrifugation, about 25 microliters of clear supernatant liquid was injected directly into the HPLC port. The HPLC analysis was performed with a C-18 reverse phase column using an H2 O/CH3 CN (1:1) eluent and the UV detector was set at 250 nm. The relative concentration of ara-C was determined by the relative peak areas. […] The disappearance of characteristic signals of the prodrugs was accompanied by the appearance of signals of ara-C and the corresponding heterocycles. […] FIGS. 6 through 8 plot the percent concentration of prodrug over time. Table 1 below provides the half life (in hours) for ara-C release of prodrugs 10, 15, 17 and 19 as determined by NMR and HPLC analysis.

[2] = Stability in bovine or human plasma by HPLC (plasma not distinguished); type: in vitro ADME; conditions: for Cyclization / stability in plasma: bovine or human plasma, HPLC
Protocol: as §1
The stability of these compounds in bovine and human plasma was determined by HPLC analysis (Entry 5 and 6 in Table 1).

[3] = Release of ara-C from prodrugs in human plasma by HPLC; type: in vitro ADME; conditions: pH 7.4, 22° C.
Protocol: as §1

[4] = system: Murine L-1210 leukemia cells; test: L-1210 cell line growth inhibition assay; type: cell-based
Protocol: The antiproliferation activity of compounds 10, 15, 17 and 19, as compared to ara-C, was tested in an L-1210 cell line growth inhibition assay using various concentrations and continuous exposure. Cell numbers were determined 72 hours after initial drug exposure. Murine L-1210 leukemia cells were grown in suspension using Dulbecco's medium (Gibco/BRL) supplemented with 10% fetal bovine serum (FBS, HyClone), […] of L-glutamine, 100 U/ml penicillin G sodium, and 100 μg/m1 streptomycin (Gibco/BRL). Cells were grown in a humidified incubator as 37° C. under an atmosphere of 95% air and 5% CO2. Cells were routinely passaged at a 1:5 ratio and found to be free of mycoplasma contamination.

[5] = system: human promyelocytic leukemia HL-60 cells; test: Induction of apoptosis (morphology) in HL-60 cells; type: cell-based; conditions: for Maximum percentage of cells exhibiting frank apoptotic morphology: FIG. 9; for Appearance of apoptotic bodies / increase in apoptosis: 24 hours exposure, about 10 micromols
Protocol: (§2) The ability of the prodrug compounds to kill human tumor cells was tested, specifically their ability to induce apoptosis in human promyelocytic leukemia HL-60 cells. These cells are known to undergo apoptosis following exposure to ara-C. The ability of the prodrugs to cause internucleosomal DNA fragmentation, a characteristic feature of apoptosis in HL-60 cells, was also investigated. The HL-60 were cultured in essentially the same manner as the L-1210 cells, only using Iscoue's modification for the medium. Internucleosomal DNA fragmentation was determined as follows. Following the indicated drug treatments, aliquots of cells (1×10^6) were pelleted by centrifugation at 100×g for 5 minutes, washed with PBS, solubilized with 20 microliters of lysis buffer (10 mM EDTA, 0.5% sarkosyl, 1 mg/ml proteinase K, 50 mM Tris, pH8), and incubated at 50° C. for 1 hour. After incubation, RNaseA (Boehringer Mannheim) was added to a final concentration of 0.33 mg/ml and incubated for an additional hour at 37° C. The lysate was loaded into dry wells of a 1.8% agarose gel, the wells were sealed with low melting point agarose, and the DNA was electrophoresed using Tris-phosphate-EDTA (TPE) running buffer. After electrophoresis, the DNA was stained by immersion of the gel in water containing 1 μg/ml ethidium bromide (Sigma). The DNA was visualized and photographed using an ultraviolet transilluminator.
The formation of apoptotic bodies occurred within a maximal halftime of 4 hours and there was no noticeable difference in the kinetics of apoptosis among ara-C, 10, 15 and 17.

[6] = Release of ara-C from prodrugs (cyclization) in CD3OD or D2O monitored by 1H NMR; type: physicochemical; conditions: for Half-life (hours) for release of ara-C, t1/2: 22° C., 1H NMR
Protocol: The stability of the ara-C prodrug compounds 10, 15, 17 and 19, prepared according to Example 1, in various reaction media was investigated by NMR and HPLC analyses. The ^1 H NMR studies of the cyclization process were performed on a 4 mg/ml solution of prodrug in CD3 OD or D2 O. Sodium acetate (2 mg) or acetic acid (2 microliters) were added neat to the samples to control the pH. The spectra were collected in appropriate time intervals, and the ratio of prodrug to drug was determined by comparing the integration of the H-C (6) on the nucleoside of prodrug and ara-C.

[7] = system: human promyelocytic leukemia HL-60 cells; test: Internucleosomal DNA fragmentation in HL-60 cells; type: cell-based
Protocol: as §2, with “These cells are known to undergo apoptosis following exposure to ara-C.” left out
DNA fragmentation of the compounds was tested.

[8] = total; cited from earlier work
[9] = continuous exposure, cell numbers 72 hours after initial drug exposure
[10] = Mus musculus, L1210, continuous exposure, cell numbers 72 hours after initial drug exposure

| Molecule | Half-life (hours) for release of ara-C, t1/2 [1] | Cyclization / stability in plasma [2] | Half-life (hours) for release of ara-C, t1/2 [3] | IC50 and IC90 values compared with ara-C control ([4]; L-1210 cells) | L-1210 Cell Growth Inhibition IC50 [4, 9] | L-1210 Cell Growth Inhibition IC90 [4, 9] | Maximal halftime of formation of apoptotic bodies [5] | Maximum percentage of cells exhibiting frank apoptotic morphology [5] | Half-life (hours) for release of ara-C, t1/2 ([6]; CD3OD) | Half-life (hours) for release of ara-C, t1/2 ([6]; CD3OD, HOAc) | Half-life (hours) for release of ara-C, t1/2 ([6]; CD3OD, NaOAc) | Appearance of apoptotic bodies / increase in apoptosis [5] | further results |
| --- | --- | --- | --- | --- | --- | --- | --- | --- | --- | --- | --- | --- | --- |
| CC(C)(NC(=O)[C@@H](N)Cc1ccc(OCc2ccccc2)cc1)C(=O)Nc1ccn([C@@H]2O[C@H](CO)[C@@H](O)[C@@H]2O)c(=O)n1.Cl [Compound 10, Tyr(OBn)-Aib-ara-C hydrochloride] | 0.4 h | cyclize readily | 0.3 h | essentially identical to the ara-C control | 1.3 ng/mL | 5 ng/mL | ≤ 4 h | approximately 25% | 42 h | 31 h | 0.3 h | – | Faster cyclization upon change from CD3OD to D2O ([6]; D2O versus CD3OD): about 50%; Half-life (hours) for release of ara-C, t1/2 ([6]; D2O): 21 h |
| CC(C)(N)C(=O)NNC(=O)Nc1ccn([C@@H]2O[C@H](CO)[C@@H](O)[C@@H]2O)c(=O)n1.Cl [Compound 19, Aib-2-Azagly-ara-C hydrochloride] | > 10 h | good stability | > 10 h | – | 600 ng/mL | 1400 ng/mL | – | – | > 2000 h | > 2000 h | 800 h | no obvious increase in apoptosis | ara-C detected in plasma after 48 hours ([2]; plasma, after 48 hours): No ara-C was detected; Times less toxic than ara-C in L-1210 test ([4]; L-1210 cells, versus ara-C): about 500 times; Apoptotic activity after preincubation ([5]; compound preincubated in serum-free medium for 15 days, FIG. 10): slightly less than ara-C; Cyclization to release the drug ([6]; in the presence of NaOAc): extremely slow; Cyclization to release the drug ([6]; neutral or acid conditions): did not undergo cyclization; DNA fragmentation after preincubation ([7]; compound preincubated in serum-free medium for 15 days): DNA ladders similar ara-C |
| Nc1ccn([C@@H]2O[C@H](CO)[C@@H](O)[C@@H]2O)c(=O)n1 [ara-C, 1-(β-D-arabinofuranosyl) cytosine, reference compound] | – | – | – | – | – | – | ≤ 4 h | approximately 25% | – | – | – | obvious apoptotic bodies | IC50 [4, 10]: 1.5 ng/mL (≈ 0.00617 µM); IC90 [4, 10]: 4.3 ng/mL (≈ 0.0177 µM); Fraction of dose excreted in the urine within 24 hours [8]: About 80%; Internucleosomal DNA fragmentation ([7]; about 10 micromols, 4 hours): displayed internucleosomal 180-200 base pair DNA fragments |
| Aib-Aib-ara-C hydrochloride [Compound 15] | 0.5 h | cyclize readily | 0.4 h | essentially identical to the ara-C control | 1.1 ng/mL | 3.4 ng/mL | ≤ 4 h | approximately 25% | > 1000 h | > 1000 h | 1.3 h | – | – |
| Glc-Aib-ara-C [Compound 17] | 0.4 h | cyclize readily | 0.3 h | essentially identical to the ara-C control | 1.0 ng/mL | 3.4 ng/mL | ≤ 4 h | approximately 25% | 360 h | 860 h | 1.4 h | – | – |
